Values after ≈ are worked out from the molar mass of the structure shown. Like-named read-outs stand apart in the source and are kept apart here.
System: S. aureus clinical isolates
Assay: microbe, parasite or virus in culture
Assay type: cell-based
Conditions: Staphylococcus aureus, read-out: MIC

With `CC(=O)NC[C@H]1CN(c2ccc(N3CCOCC3)c(F)c2)C(=O)O1` [Linezolid] the MIC (MRSA, S. aureus IHMA 1621638, MRSA / VSSA) was 2 µg/mL (≈ 5.93 µM), the MIC (MRSA, S. aureus IHMA 1622252, MRSA / VSSA) was 4 µg/mL (≈ 11.9 µM) and the MIC (MRSA, S. aureus IHMA 1622527, MRSA / VSSA) was 4 µg/mL (≈ 11.9 µM). It also gave an MIC (MRSA, S. aureus IHMA 1666371, MRSA / VSSA) of 0.5 µg/mL (≈ 1.48 µM), an MIC (MRSA, S. aureus IHMA 1695391, MRSA / VSSA) of 2 µg/mL (≈ 5.93 µM) and an MIC (MRSA, S. aureus IHMA 1703428, MRSA / VSSA) of 2 µg/mL (≈ 5.93 µM). For the same compound, the MIC (MRSA, S. aureus IHMA 1720350, MRSA / VSSA) was 2 µg/mL (≈ 5.93 µM), the MIC (MRSA, S. aureus IHMA 1732989, MRSA / VSSA) was 4 µg/mL (≈ 11.9 µM) and the MIC (MRSA, S. aureus IHMA 1742231, MRSA / VSSA) was 2 µg/mL (≈ 5.93 µM). The MIC (MRSA, S. aureus IHMA 1766357, MRSA / VSSA) was 4 µg/mL (≈ 11.9 µM), the MIC (MSSA / NRS 12 / VISA, S. aureus IHMA 1308244, NRS12, MSSA / VISA) was 4 µg/mL (≈ 11.9 µM) and the MIC (MSSA / NRS 13 / VISA, S. aureus IHMA 1308245, NRS13, MSSA / VISA) was 2 µg/mL (≈ 5.93 µM). It also gave an MIC (MSSA / NRS 14 / VISA, S. aureus IHMA 1308246, NRS14, MSSA / VISA) of 2 µg/mL (≈ 5.93 µM), an MIC (MSSA / NRS 17 / VISA, S. aureus IHMA 1308247, NRS17, MSSA / VISA) of 2 µg/mL (≈ 5.93 µM) and an MIC (MSSA / NRS 28 / VISA, S. aureus IHMA 1308249, NRS28, MSSA / VISA) of 0.5 µg/mL (≈ 1.48 µM). It also gave an MIC (MSSA / NRS 52, S. aureus IHMA 1308252, NRS52, MSSA / VSSA* (*Expected VAN intermediate, confirmed VAN susceptible twice), test date 2018-11-07) of 1 µg/mL (≈ 2.96 µM), an MIC (MSSA / USA100 / VRSA, S. aureus IHMA 672236, VRS6, MSSA / VRSA, USA100) of 1 µg/mL (≈ 2.96 µM) and an MIC (MSSA, S. aureus IHMA 1563826, MSSA / VSSA) of 4 µg/mL (≈ 11.9 µM). For the same compound, the MIC (MSSA, S. aureus IHMA 1565492, MSSA / VSSA) was 2 µg/mL (≈ 5.93 µM), the MIC (MSSA, S. aureus IHMA 1569499, MSSA / VSSA) was 2 µg/mL (≈ 5.93 µM) and the MIC (MSSA, S. aureus IHMA 1569754, MSSA / VSSA) was 2 µg/mL (≈ 5.93 µM). For the same compound, the MIC (MSSA, S. aureus IHMA 1574202, MSSA / VSSA) was 2 µg/mL (≈ 5.93 µM), the MIC (MSSA, S. aureus IHMA 1575652, MSSA / VSSA) was 4 µg/mL (≈ 11.9 µM) and the MIC (MSSA, S. aureus IHMA 1575779, MSSA / VSSA) was 2 µg/mL (≈ 5.93 µM). For the same compound, the MIC (MSSA, S. aureus IHMA 1576329, MSSA / VSSA) was 4 µg/mL (≈ 11.9 µM), the MIC (MSSA, S. aureus IHMA 1577800, MSSA / VSSA) was 4 µg/mL (≈ 11.9 µM) and the MIC (MSSA, S. aureus IHMA 1578560, MSSA / VSSA) was 4 µg/mL (≈ 11.9 µM). For the same compound, the MIC (MSSA, S. aureus IHMA 1580233, MSSA / VSSA) was 2 µg/mL (≈ 5.93 µM), the MIC (MSSA, S. aureus IHMA 1580925, MSSA / VSSA) was 2 µg/mL (≈ 5.93 µM) and the MIC (MSSA, S. aureus IHMA 1580955, MSSA / VSSA) was 2 µg/mL (≈ 5.93 µM). For the same compound, the MIC (MSSA, S. aureus IHMA 1582586, MSSA / VSSA) was 8 µg/mL (≈ 23.7 µM), the MIC (MSSA, S. aureus IHMA 1582691, MSSA / VSSA) was 2 µg/mL (≈ 5.93 µM) and the MIC (MSSA, S. aureus IHMA 1584230, MSSA / VSSA) was 4 µg/mL (≈ 11.9 µM). It also gave an MIC (MSSA, S. aureus IHMA 1587279, MSSA / VSSA) of 1 µg/mL (≈ 2.96 µM), an MIC (MSSA, S. aureus IHMA 1591459, MSSA / VSSA) of 2 µg/mL (≈ 5.93 µM) and an MIC (MSSA, S. aureus IHMA 1592749, MSSA / VSSA) of 2 µg/mL (≈ 5.93 µM). It also gave an MIC (MSSA, S. aureus IHMA 1592751, MSSA / VSSA) of 4 µg/mL (≈ 11.9 µM), an MIC (MSSA, S. aureus IHMA 1594297, MSSA / VSSA) of 2 µg/mL (≈ 5.93 µM) and an MIC (MSSA, S. aureus IHMA 1597120, MSSA / VSSA) of 4 µg/mL (≈ 11.9 µM). The MIC (MSSA, S. aureus IHMA 1597125, MSSA / VSSA) was 2 µg/mL (≈ 5.93 µM), the MIC (MSSA, S. aureus IHMA 1599157, MSSA / VSSA) was 2 µg/mL (≈ 5.93 µM) and the MIC (MSSA, S. aureus IHMA 1599506, MSSA / VSSA) was 4 µg/mL (≈ 11.9 µM). The MIC (MSSA, S. aureus IHMA 1602078, MSSA / VSSA) was 4 µg/mL (≈ 11.9 µM), the MIC (MSSA, S. aureus IHMA 1604586, MSSA / VSSA) was 2 µg/mL (≈ 5.93 µM) and the MIC (MSSA, S. aureus IHMA 1604609, MSSA / VSSA) was 2 µg/mL (≈ 5.93 µM). It also gave an MIC (MSSA, S. aureus IHMA 1609919, MSSA / VSSA) of 2 µg/mL (≈ 5.93 µM), an MIC (MSSA, S. aureus IHMA 1622864, MSSA / VSSA) of 2 µg/mL (≈ 5.93 µM) and an MIC (MSSA, S. aureus IHMA 1626392, MSSA / VSSA) of 2 µg/mL (≈ 5.93 µM). For the same compound, the MIC (MSSA, S. aureus IHMA 1713793, MSSA / VSSA) was 2 µg/mL (≈ 5.93 µM).

Source: publication PMC7561186, “Rational design of balanced dual-targeting antibiotics with limited resistance” (PLoS Biology, 2020)
